# Measured values taken from patent US12180226B2, “Spirotricycle RIPK1 inhibitors and methods of uses thereof” (Merck Sharp & Dohme LLC, priority 2021, dated 2024).
# Where a name gives a salt, the structure may show the parent alone.
# Biological target: RIPK1 (recombinant GST-RIPK1 kinase domain, residues 1-327) (Homo sapiens (Human), UniProt Q13546)
# Experiment: RIPK1-ADP-Glo Enzymatic Assay
# Type: biochemical
# Conditions: ADP-Glo; 25 nM GST-RIPK1, 300 μM ATP; assay lower limit ~25 nM; read-out: RIPK1 V0 Ec50
# In short: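 GST-tagged kinase domain (residues 1-327, Sf21-expressed), 25 nM, pre-incubated 30 min with compound at ambient temperature, then reacted 150 min with 300 μM ATP and 3 μM dephosphorylated MBP in HEPES pH 7.3 buffer. ADP measured by ADP-Glo luminescence; EC50 from ten-point titration (top 100000 nM), four-parameter fit.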
# Chain of RIPK1 (recombinant GST-RIPK1 kinase domain, residues 1-327) (Q13546 1-327): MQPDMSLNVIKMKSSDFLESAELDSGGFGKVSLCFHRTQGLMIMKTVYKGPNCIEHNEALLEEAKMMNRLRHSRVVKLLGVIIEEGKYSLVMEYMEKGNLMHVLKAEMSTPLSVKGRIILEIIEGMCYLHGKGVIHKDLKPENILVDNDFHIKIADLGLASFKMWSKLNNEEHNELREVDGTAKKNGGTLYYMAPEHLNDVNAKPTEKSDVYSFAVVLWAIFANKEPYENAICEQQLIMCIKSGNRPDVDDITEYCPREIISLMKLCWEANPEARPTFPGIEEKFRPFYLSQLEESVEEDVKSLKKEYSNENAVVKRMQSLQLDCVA
row,SMILES,EC50 [nM]
1,"Cc1ncc([C@@H]2CC[C@H]3OC4(CCN(c5ccnc6c(F)cnn56)CC4F)C(=O)N32)cc1F (stereo partly drawn) [Example 4.130, (5′S,7a′R)-3-fluoro-5′-(5-fluoro-6-methylpyridin-3-yl)-1-(3-fluoropyrazolo[1,5-a]pyrimidin-7-yl)tetrahydro-3′H-spiro[piperidine-4,2′-pyrrolo[2,1-b] [1,3]oxazol]-3′-one]",< 25
2,"O=C(c1sccc1Cl)N1CCC2(CC1)O[C@@H]1CC[C@@H](c3cc(F)cc(F)c3)N1C2=O [Example 5.31, (5′S,7a′R)-1-(3-chloro-thiophene-2-carbonyl)-5′-(3,5-difluorophenyl)tetra-hydro-3′H-spiro[piperi-dine-4,2′-pyrrolo[2,1-b]oxazol]-3′-one]",< 25
3,"N#Cc1cccc(C(=O)N2CCC3(CC2)O[C@@H]2CC[C@@H](c4ccccc4)N2C3=O)c1 [Example 6.153, 3-[(5′S,7a′R)-3′-oxo-5′-phenyltetrahydro-1H,3′H-spiro[piperi-dine-4,2′-pyrrolo[2,1-b][1,3]oxazole]-1-carbonyl]benzonitrile]",< 25
4,"Cc1nc(N2CCC3(CC2)O[C@@H]2CC[C@@H](c4ccccc4)N2C3=O)ccc1F [Example 11.33, (5′S,7a′R)-1-(5-fluoro-6-methylpyridin-2-yl)-5′-phenyltetrahydro-3′H-spiro[piperidine-4,2′-pyrrolo[2,1-b][1,3]oxazol]-3′-one]",< 25
5,"CC1CC2(CCN1c1ccnc3c(F)cnn13)O[C@@H]1CC[C@@H](c3ccccc3)N1C2=O (stereo partly drawn) [Example 4.225, (4R,5′S,7a′R)-1-(3-fluoropyrazolo[1,5-a]pyrimidin-7-yl)-2-methyl-5′-phenyltetrahydro-3′H-spiro[piperidine-4,2′-pyrrolo[2,1-b] [1,3]oxazol]-3′-one]",31.8
6,"N#Cc1ccc(C(=O)N2CCC3(CC2)O[C@@H]2CC[C@@H](c4ccccc4)N2C3=O)cc1 [Example 6.151, 4-[(5′S,7a′R)-3′-oxo-5′-phenyltetrahydro-1H,3′H-spiro[piperi-dine-4,2′-pyrrolo[2,1-b][1,3]oxazole]-1-carbonyl]benzonitrile]",349
7,"O=C(c1ccccc1)N1CCC2(CC1)O[C@@H]1CC[C@@H](c3cnc4c(c3)CCC4)N1C2=O [Example 17.12, (5′S,7a′R)-1-benzoyl-5′-(6,7-dihydro-5H-cyclopenta[b]pyridin-3-yl)tetrahydro-3′H-spiro[piperidine-4,2′-pyrrolo[2,1-b]oxazol]-3′-one]",342
8,"O=C1N2[C@@H](CC[C@H]2c2ccccc2)OC12CCN(c1ncccc1Cl)CC2 [Example 4.256, (5′S,7a′R)-1-(3-chloropyridin-2-yl)-5′-phenyltetrahydro-3′H-spiro[piperidine-4,2′-pyrrolo[2,1-b] [1,3]oxazol]-3′-one]",25
9,"O=C1N2[C@@H](CC[C@H]2c2cc(F)cc(F)c2)OC12CCN(S(=O)(=O)c1cccc(F)c1)CC2 [Example 8.4, (5′S,7a′R)-5′-(3,5-difluorophenyl)-1-[(3-fluorophenyl)sulfonyl] tetrahydro-3′H-spiro[piperidine-4,2′-pyrrolo[2,1-b][1,3]oxazol]-3′-one]",672
10,"O=C(c1cn2ccccc2n1)N1CCC2(CC1)O[C@@H]1CC[C@@H](c3cc(F)cc(F)c3)N1C2=O [Example 5.71, (5′S,7a′R)-5′-(3,5-difluoro-phenyl)-1-(imidazo[1,2-a]-pyridine-2-carbonyl)tetra-hydro-3′H-spiro[piperidine-4,2′-pyrrolo[2,1-b]oxazol]-3′-one]",155
11,"N#Cc1cc(N2CCC3(CC2)N=C2CC[C@@H](c4cc(F)cc(F)c4)N2C3=O)ncn1 [Example 4.80, (S)-[5′-(3,5-difluorophenyl)-3′-oxo-6′,7′-dihydro-1H,3′H,5′H-spiro[piperidine-4,2′-pyrrolo[1,2-a]imidazol]-1-yl]pyrimidine-4-carbonitrile]",494
12,"O=C(c1ccccc1)N1CCC2(O[C@@H]3CC[C@@H](c4ccccc4)N3C2=O)C(F)C1 (single isomer, unassigned) [Example 2.3, (3[S or R],4[R or S], 5′S,7a′R)-1-benzoyl-3-fluoro-5′-phenyltetrahydro-3′H-spiro[piperidine-4,2′-pyrrolo[2,1-b]oxazol]-3′-one]",< 25
13,"O=C(c1ccccc1)N1CCC2(CC1)O[C@@H]1[C@@H](F)C[C@@H](c3ccccc3)N1C2=O [Example 6.108, (5′S,7′S,7a′R)-1-(benzenecarbonyl)-7′-fluoro-5′-phenyl-tetrahydro-3′H-spiro [piperidine-4,2′-pyrrolo[2,1-b][1,3]-oxazol]-3′-one]",43.8
14,"N#Cc1ccc(N2CCC3(CC2)OC2CCC(c4cnccn4)N2C3=O)n2ncnc12 (stereo not shown) [Example 4.141, 5-[3′-oxo-5′-(pyrazin-2-yl)tetrahydro-1H,3′H-spiro[piperidine-4,2′-pyrrolo[2,1-b] [1,3]oxazol]-1-yl][1,2,4]triazolo[1,5-a] pyridine-8-carbonitrile]",< 25
15,"Cn1cc([C@@H]2CC[C@H]3OC4(CCN(c5ccc(C#N)c6ncnn56)CC4)C(=O)N32)cn1 [Example 20.1, 5-((5′S,7a′R)-5′-(1-Methyl-1H-pyrazol-4-yl)-3′-oxotetrahydro-3′H-spiro[piperidine-4,2′-pyrrolo[2,1-b]oxazol]-1-yl)-[1,2,4]triazolo[1,5-a]pyridine-8-carbonitrile]",45.4
16,"N#Cc1cc(N2CCC3(CC2)C[C@@H]2OC[C@@H](c4ccccc4)N2C3=O)ncn1 [Example 4.113, 6-[(3′R,7a′S)-5′-oxo-3′-phenyltetrahydro-1H,5′H-spiro[piperidine-4,6′-pyrrolo[2,1-b] [1,3]oxazol]-1-yl]pyrimidine-4-carbonitrile]",309
17,"O=C(c1ccccc1)N1CCC2(CC1)O[C@@H]1CC[C@@H](c3ccc(F)cn3)N1C2=O [Example 17.6, (5′S,7a′R)-1-benzoyl-5′-(5-fluoropyridin-2-yl)tetrahydro-3′H-spiro[piperidine-4,2′-pyrrolo[2,1-b]oxazol]-40′-one, TFA salt]",94.4
18,"O=C(c1nc2ccncc2s1)N1CCC2(CC1)O[C@@H]1CC[C@@H](c3cc(F)cc(F)c3)N1C2=O [Example 6.23, (5′S,7a′R)-5′-(3,5-difluorophenyl)-1-([1,3]thiazolo[5,4-c]-pyridine-2-carbonyl) tetrahydro-3′H-spiro [piperidine-4,2′-pyrrolo[2,1-b][1,3]oxazol]-3′-one]",96.4
19,"N#Cc1cncc([C@@H]2CC[C@H]3SC4(CCN(c5ccnc6c(F)cnn56)CC4)C(=O)N32)c1 [Example 4.112, 5-[(5′S,7a′R)-1-(3-fluoropyrazolo[1,5-a]pyrimidin-7-yl)-3′-oxotetrahydro-3′H-spiro[piperidine-4,2′-pyrrolo[2,1-b] [1,3]thiazol]-5′-yl]pyridine-3-carbonitrile]",< 25
20,"O=C1N2[C@@H](CC[C@H]2c2ccccc2F)OC12CCN(c1ncc(Br)c3ncnn13)CC2 [Example 4.240, (5′S,7a′R)-1-(8-bromo [1,2,4]triazolo[1,5-c]pyrimidin-5-yl)-5′-(2-fluorophenyl)tetrahydro-3′H-spiro[piperidine-4,2′-pyrrolo[2,1-b] [1,3]oxazol]-3′-one]",< 25
21,"O=C1N2[C@@H](CC[C@H]2c2ccccc2F)OC12CN(c1ccnc3ccnn13)C2 [Example 4.108, (5′S,7a′R)-5′-(2-fluorophenyl)-1-(pyrazolo[1,5-a]pyrimidin-7-yl)tetrahydro-3′H-spiro[azetidine-3,2′-pyrrolo[2,1-b]oxazol]-3′-one]",26.9
22,"O=C1N2[C@@H](CC[C@H]2c2ccccc2)OC12CCN(c1ncnc3c(F)cnn13)CC2 [Example 4.233, (5′S,7a′R)-1-(8-fluoropyrazolo[1,5-a] [1,3,5]triazin-4-yl)-5′-phenyltetrahydro-3′H-spiro[piperidine-4,2′-pyrrolo[2,1-b] [1,3]oxazol]-3′-one]",< 25
23,"O=C1N2[C@@H](CC[C@H]2c2ccccc2)OC12CN(c1cccc3ncnn13)C2 [Example 4.133, (5′S,7a′R)-5′-phenyl-1-([1,2,4]triazolo[1,5-a]pyridin-5-yl)tetrahydro-3′H-spiro[azetidine-3,2′-pyrrolo[2,1-b] [1,3]oxazol]-3′-one]",48.8
24,"O=C(c1cnccn1)N1CCC2(CC1)O[C@@H]1CC[C@@H](c3cc(F)cc(F)c3)N1C2=O [Example 6.85, (5′S,7a′R)-5′-(3,5-difluorophenyl)-1-(pyrazine-2-carbon-yl)tetrahydro-3′H-spiro[piperidine-4,2′-pyrrolo[2,1-b][1,3]-oxazol]-3′-one]",36.9
25,"Cc1ccccc1S(=O)(=O)N1CCC2(CC1)O[C@@H]1CC[C@@H](c3cc(F)cc(F)c3)N1C2=O [Example 8.2, (5′S,7a′R)-5′-(3,5-difluorophenyl)-1-[(2-methylphenyl)sulfonyl] tetrahydro-3′H-spiro[piperidine-4,2′-pyrrolo[2,1-b][1,3]oxazol]-3′-one]",685
26,"COCCN1Cc2nc(N3CCC4(CC3)O[C@@H]3CC[C@@H](c5ccccc5)N3C4=O)ccc2C1=O [Example 4.191, (5′S,7a′R)-1-[6-(2-methoxyethyl)-5-oxo-6,7-dihydro-5H-pyrrolo[3,4-b]pyridin-2-yl]-5′-phenyltetrahydro-3′H-spiro[piperidine-4,2′-pyrrolo[2,1-b] [1,3]oxazol]-3′-one]",53
27,"O=C(c1cc(F)c(F)cc1F)N1CCC2(CC1)O[C@@H]1CC[C@@H](c3ccccc3)N1C2=O [Example 5.10, (5′S,7a′R)-5′-phenyl-1-(2,4,5-trifluorobenzene-1-carbonyl)tetrahydro-3′H-spiro[piperidine-4,2′-pyrrolo[2,1-b][1,3]oxazol]-3′-one]",< 25
28,"O=C(c1cccc(Cl)c1F)N1CCC2(CC1)O[C@@H]1CC[C@@H](c3cc(F)cc(F)c3)N1C2=O [Example 5.60, (5′S,7a′R)-1-(3-chloro-2-fluorobenzoyl)-5′-(3,5-difluorophenyl)tetrahydro-3′H-spiro[piperidine-4,2′-pyrrolo[2,1-b]oxazol]-3′-one]",< 25
